Assay results: PubChem BioAssay AID256 (DTP/NCI, 2004)
“And” between values parts separate entries of the source, which are not always exact repeats. Equal values may be shown once. Inconclusive results and toxic doses are left out.

System: CD2F1 mice, L1210 leukemia ip, survival T/C
Assay: NCI In Vivo Anticancer Drug Screen. Data for tumor model L1210 Leukemia (intraperitoneal) in CD2F1 (CDF1) mice
Details: higher = longer survival
Method in brief: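 Activity against a transplanted murine tumor was judged by comparing the compound group with a vehicle group. The outcome in the treated animals was divided by that in the controls.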

[1] = endpoint: mean survival time, dose: 100.0 mg/kg/injection, schedule: Q04DX003 (ip), vehicle: saline
[2] = endpoint: mean survival time, dose: 200.0 mg/kg/injection, schedule: Q04DX003 (ip), vehicle: saline
[3] = endpoint: mean survival time, dose: 50.0 mg/kg/injection, schedule: Q01DX009 (ip), vehicle: saline with Tween-80
[4] = endpoint: mean survival time, dose: 100.0 mg/kg/injection, schedule: Q01DX009 (ip), vehicle: saline with Tween-80
[5] = endpoint: mean survival time, dose: 100.0 mg/kg/injection, schedule: Q04DX003 (ip), vehicle: saline with Tween-80
[6] = endpoint: mean survival time, dose: 200.0 mg/kg/injection, schedule: Q01DX009 (ip), vehicle: saline with Tween-80
[7] = endpoint: mean survival time, dose: 200.0 mg/kg/injection, schedule: Q04DX003 (ip), vehicle: saline with Tween-80
[8] = endpoint: median survival time, dose: 50.0 mg/kg/injection, schedule: Q01DX009 (ip), vehicle: Klucel (hydroxypropylcellulose) (HPC)
[9] = endpoint: median survival time, dose: 100.0 mg/kg/injection, schedule: Q01DX009 (ip), vehicle: Klucel (hydroxypropylcellulose) (HPC)
[10] = endpoint: median survival time, dose: 200.0 mg/kg/injection, schedule: Q01DX009 (ip), vehicle: Klucel (hydroxypropylcellulose) (HPC)
[11] = endpoint: mean survival time, dose: 100.0 mg/kg/injection, schedule: Q04DX002 (ip), vehicle: saline with Tween-80
[12] = endpoint: mean survival time, dose: 200.0 mg/kg/injection, schedule: Q04DX002 (ip), vehicle: saline with Tween-80
[13] = endpoint: mean survival time, dose: 12.5 mg/kg/injection, schedule: Q01DX009 (ip), vehicle: saline
[14] = endpoint: mean survival time, dose: 25.0 mg/kg/injection, schedule: Q01DX009 (ip), vehicle: saline
[15] = endpoint: mean survival time, dose: 50.0 mg/kg/injection, schedule: Q01DX009 (ip), vehicle: saline

SMILES: CC(=O)Nc1ccc2c(Nc3ccc(NS(C)(=O)=O)cc3)c3ccccc3nc2c1
- T/C (endpoint: mean survival time, dose: 8.0 mg/kg/injection, schedule: Q01DX009 (ip), vehicle: saline with Tween-80): 192 % of control
- T/C (endpoint: mean survival time, dose: 12.0 mg/kg/injection, schedule: Q01DX009 (ip), vehicle: saline with Tween-80): 203 % of control
- T/C (endpoint: mean survival time, dose: 18.0 mg/kg/injection, schedule: Q01DX009 (ip), vehicle: saline with Tween-80): 105 % of control
- T/C [1]: 122 % of control
- T/C [2]: 101 % of control

SMILES: O=CNc1cccc2ccc3cc4ccccc4cc3c12
- T/C [3]: 90 % of control
- T/C [4]: 88 % of control
- T/C [5]: 94 % of control
- T/C [6]: 93 % of control
- T/C [7]: 88 % of control

SMILES: CC1=C(C(N)=O)C(c2ccccc2)NC(=S)N1 (stereo not drawn)
- T/C (endpoint: median survival time, dose: 25.0 mg/kg/injection, schedule: Q01DX009 (ip), vehicle: Klucel (hydroxypropylcellulose) (HPC)): 101 % of control
- T/C [8]: 105 % of control
- T/C [9]: 102 % of control
- T/C [10]: 112 % of control
- T/C (endpoint: median survival time, dose: 400.0 mg/kg/injection, schedule: Q01DX009 (ip), vehicle: Klucel (hydroxypropylcellulose) (HPC)): 103 % of control

SMILES: O=C(O)CCc1nc(-c2cccc(Br)c2)n[nH]1
- T/C [11]: 96 % of control
- T/C [12]: 107 % of control
- T/C (endpoint: mean survival time, dose: 400.0 mg/kg/injection, schedule: Q04DX002 (ip), vehicle: saline with Tween-80): 103 % of control

SMILES: S=C1CCNCC1
- T/C [13]: 98 % of control
- T/C (endpoint: mean survival time, dose: 12.5 mg/kg/injection, schedule: Q04DX003 (ip), vehicle: saline): 100 % of control
- T/C [14]: 103 % of control
- T/C (endpoint: mean survival time, dose: 25.0 mg/kg/injection, schedule: Q04DX003 (ip), vehicle: saline): 96 % of control
- T/C [15]: 104 % of control
- T/C (endpoint: mean survival time, dose: 50.0 mg/kg/injection, schedule: Q04DX003 (ip), vehicle: saline): 87 % of control

SMILES: CC1CCC2(CC1=O)C(C)CC(=O)C2C(C)C (stereo not drawn)
- T/C [1]: 95 % of control
- T/C [2]: 98 % of control
- T/C (endpoint: mean survival time, dose: 400.0 mg/kg/injection, schedule: Q04DX003 (ip), vehicle: saline): 98 % of control

SMILES: CC(C)CC(CCl)Cc1nc2ccccc2[nH]1 (stereo not drawn)
- T/C [11]: 94 % of control
- T/C [12]: 97 % of control

SMILES: Nc1ccc(C(=O)Nc2cccc(S(=O)(=O)F)c2)cc1
- T/C (endpoint: mean survival time, dose: 100.0 mg/kg/injection, schedule: Q01DX001 (ip), vehicle: saline with Tween-80): 101 % of control
- T/C (endpoint: mean survival time, dose: 200.0 mg/kg/injection, schedule: Q01DX001 (ip), vehicle: saline with Tween-80): 98 % of control
- T/C (endpoint: mean survival time, dose: 400.0 mg/kg/injection, schedule: Q01DX001 (ip), vehicle: saline with Tween-80): 93 % of control

SMILES: CCN(CC)CCOC(=O)c1ccccc1Nc1cccc(C)c1
- T/C [14]: 89 % of control
- T/C [15]: 101 % of control
- T/C (endpoint: mean survival time, dose: 100.0 mg/kg/injection, schedule: Q01DX009 (ip), vehicle: saline): 97 % of control

SMILES: CC(=O)OC1COC(n2nnc3c(-c4ccccc4)c(C)nn32)C(OC(C)=O)C1OC(C)=O (stereo not drawn)
- T/C (endpoint: median survival time, dose: 12.5 mg/kg/injection, schedule: Q01DX005 (ip), vehicle: Klucel (hydroxypropylcellulose) (HPC)): 112 % of control
- T/C (endpoint: median survival time, dose: 25.0 mg/kg/injection, schedule: Q01DX005 (ip), vehicle: Klucel (hydroxypropylcellulose) (HPC)): 104 % of control
- T/C (endpoint: median survival time, dose: 50.0 mg/kg/injection, schedule: Q01DX005 (ip), vehicle: Klucel (hydroxypropylcellulose) (HPC)): 97 % of control
- T/C (endpoint: median survival time, dose: 100.0 mg/kg/injection, schedule: Q01DX005 (ip), vehicle: Klucel (hydroxypropylcellulose) (HPC)): 100 % of control
- T/C (endpoint: median survival time, dose: 200.0 mg/kg/injection, schedule: Q01DX005 (ip), vehicle: Klucel (hydroxypropylcellulose) (HPC)): 95 % of control

SMILES: C/C(=C\Cl)COC(C)(C)C
- T/C [3]: 98 % of control
- T/C [4]: 93 % of control
- T/C (endpoint: mean survival time, dose: 100.0 mg/kg/injection, schedule: Q04DX003 (ip), vehicle: acetone): 101 % of control
- T/C [6]: 98 % of control
- T/C (endpoint: mean survival time, dose: 200.0 mg/kg/injection, schedule: Q04DX003 (ip), vehicle: acetone): 93 % of control

SMILES: CC1(C(F)(F)F)CC(=O)NN1 (stereo not drawn)
- T/C [13]: 95 % of control
- T/C [14]: 97 % of control
- T/C [15]: 97 % of control
- T/C [5]: 97 % of control

SMILES: S=C1NC(c2ccccc2)Nc2ccccc21 (stereo not drawn)
- T/C [5]: 91 % of control
- T/C [7]: 95 % of control

SMILES: Cc1ccc(S(=O)(=O)OCOS(=O)(=O)c2ccc(C)cc2)cc1
- T/C [8]: 113 % of control
- T/C [9]: 107 % of control and 111 % of control
- T/C [10]: 122 % of control and 112 % of control
- T/C (endpoint: median survival time, dose: 800.0 mg/kg/injection, schedule: Q01DX009 (ip), vehicle: Klucel (hydroxypropylcellulose) (HPC)): 124 % of control and 103 % of control

SMILES: CCC1(O)C(=O)OCc2c1cc1n(c2=O)Cc2cc3ccc(C(=O)O)cc3nc2-1 (stereo not drawn)
- T/C (endpoint: median survival time, dose: 10.0 mg/kg/injection, schedule: Q04DX002 (ip), vehicle: saline with Tween-80): 108 % of control
- T/C (endpoint: median survival time, dose: 10.0 mg/kg/injection, schedule: Q04DX002 (ip), vehicle: water): 100 % of control
- T/C (endpoint: median survival time, dose: 20.0 mg/kg/injection, schedule: Q04DX002 (ip), vehicle: saline with Tween-80): 101 % of control
- T/C (endpoint: median survival time, dose: 20.0 mg/kg/injection, schedule: Q04DX002 (ip), vehicle: water): 109 % of control
- T/C (endpoint: median survival time, dose: 40.0 mg/kg/injection, schedule: Q04DX002 (ip), vehicle: saline with Tween-80): 108 % of control
- T/C (endpoint: median survival time, dose: 40.0 mg/kg/injection, schedule: Q04DX002 (ip), vehicle: water): 106 % of control
- T/C (endpoint: median survival time, dose: 80.0 mg/kg/injection, schedule: Q04DX002 (ip), vehicle: saline with Tween-80): 108 % of control
- T/C (endpoint: median survival time, dose: 80.0 mg/kg/injection, schedule: Q04DX002 (ip), vehicle: water): 106 % of control

SMILES: NC(=O)C1(C(N)=O)CC1
- T/C (endpoint: mean survival time, dose: 100.0 mg/kg/injection, schedule: Q04DX002 (ip), vehicle: saline): 108 % of control
- T/C (endpoint: mean survival time, dose: 200.0 mg/kg/injection, schedule: Q04DX002 (ip), vehicle: saline): 104 % of control
- T/C (endpoint: mean survival time, dose: 400.0 mg/kg/injection, schedule: Q04DX002 (ip), vehicle: saline): 100 % of control

SMILES: Cc1c2ccncc2cc2c1[nH]c1ccccc12
- T/C (endpoint: mean survival time, dose: 0.8 mg/kg/injection, schedule: Q03HX008 (iv), vehicle: saline): 97 % of control
- T/C (endpoint: mean survival time, dose: 1.6 mg/kg/injection, schedule: Q03HX008 (iv), vehicle: saline): 97 % of control
- T/C (endpoint: mean survival time, dose: 1.6 mg/kg/injection, schedule: Q06HX004 (iv), vehicle: saline): 97 % of control
- T/C (endpoint: mean survival time, dose: 3.2 mg/kg/injection, schedule: Q06HX004 (iv), vehicle: saline): 93 % of control
- T/C (endpoint: mean survival time, dose: 3.21 mg/kg/injection, schedule: Q#A X002 (iv), vehicle: saline): 95 % of control
- T/C (endpoint: mean survival time, dose: 6.3 mg/kg/injection, schedule: Q06HX004 (iv), vehicle: saline): 97 % of control
- T/C (endpoint: mean survival time, dose: 6.31 mg/kg/injection, schedule: Q#A X002 (iv), vehicle: saline): 101 % of control
- T/C (endpoint: mean survival time, dose: 12.5 mg/kg/injection, schedule: Q01DX001 (iv), vehicle: saline): 95 % of control
- T/C (endpoint: mean survival time, dose: 12.51 mg/kg/injection, schedule: Q#A X002 (iv), vehicle: saline): 100 % of control
- T/C (endpoint: mean survival time, dose: 25.0 mg/kg/injection, schedule: Q01DX001 (iv), vehicle: saline): 98 % of control
- T/C (endpoint: mean survival time, dose: 25.1 mg/kg/injection, schedule: Q#A X002 (iv), vehicle: saline): 101 % of control

SMILES: CCc1ccccc1N1CCN(C(=O)c2cc(OC)c(OC)c(OC)c2)CC1
- T/C (endpoint: mean survival time, dose: 100.0 mg/kg/injection, schedule: Q01DX009 (ip), vehicle: acetone): 118 % of control
- T/C (endpoint: mean survival time, dose: 150.0 mg/kg/injection, schedule: Q01DX009 (ip), vehicle: acetone): 124 % of control
- T/C (endpoint: mean survival time, dose: 225.0 mg/kg/injection, schedule: Q01DX009 (ip), vehicle: acetone): 90 % of control

SMILES: CN(C)CCC[n+]1cc2c3ccccc3c(N)cc2c2ccccc21
- T/C (endpoint: mean survival time, dose: 3.13 mg/kg/injection, schedule: Q04DX003 (ip), vehicle: water): 103 % of control
- T/C (endpoint: mean survival time, dose: 6.25 mg/kg/injection, schedule: Q04DX003 (ip), vehicle: water): 106 % of control
- T/C (endpoint: mean survival time, dose: 12.5 mg/kg/injection, schedule: Q04DX003 (ip), vehicle: water): 103 % of control
- T/C (endpoint: mean survival time, dose: 25.0 mg/kg/injection, schedule: Q04DX003 (ip), vehicle: water): 109 % of control
- T/C (endpoint: mean survival time, dose: 50.0 mg/kg/injection, schedule: Q04DX003 (ip), vehicle: water): 109 % of control

SMILES: C[N+]1(C)CCc2cc(O)c(O)cc2C1Cc1ccc(O)c(O)c1 (stereo not drawn)
- T/C (endpoint: mean survival time, dose: 75.0 mg/kg/injection, schedule: Q01DX001 (ip), vehicle: saline): 102 % of control

SMILES: CCC1(C)C=CCC(C)(C)S1 (stereo not drawn)
- T/C [11]: 102 % of control
- T/C [12]: 91 % of control
